The test system of assay [1] is brains of animals suffering from a seizure disorder. Conditions: as disclosed in co-owned U.S. Ser. No. 60/580,436; cited from earlier work.
Assay [2] deals with CA3 region of rat hippocampal slices. Put plainly: Synchronized bursting induced by elevated [K+]o in rat hippocampal slices ex corpora (extracellular CA3 recording). Format: cell-based. The following applies: for synchronized bursting: 10 mM glucose; for epileptic discharges evoked in vitro (relative burst frequency) / epileptiform bursting frequency: normal glucose conditions; for epileptic discharges evoked in vitro (relative burst frequency): summary statement; for block of the increase in bursting caused by the PEPCK inhibitor 3-MCP: slices simultaneously exposed to 3-MCP, FIGS. 5A, 5B; for epileptiform bursting frequency: FIG. 6A; for burst frequency: 20 mM lactate or 20 mM pyruvate in place of 10 mM glucose in ACSF, 7.5 mM [K+]o. Here is the method:
The effect of various energy sources on synchronized bursting induced by elevation of [K^+]o in rat hippocampal slices ex corpora was evaluated.
In these experiments, postnatal day 28 to 40 male Sprague-Dawley rats were anesthetized and decapitated. Brains were removed and transferred to ice cold artificial cerebrospinal fluid (ACSF, comprising 124 mM NaCl, 5 mM KCl, 1.25 mM NaH2PO4, 1.5 mM MgSO4, 26 mM NaHCO3 and 2 mM CaCl2), supplemented with 10 mM glucose, which was continuously bubbled with 95% O2 and 5% CO2. Transverse hippocampal slices (˜500 microns) were prepared on a Leica VT1000s vibratome (Wetzlar Germany). The slices were allowed to recover for 1 hour at room temperature and were then transferred to an interface recording chamber at 34° C. in ACSF with 7.5 mM [K^+]o. Extracellular recordings were made from the CA3 region with an Axioclamp 2B (Axon Instruments, Forest City, Calif.) using a glass microelectrode filled with 150 mM NaCl. Data were recorded and analyzed using PClamp8 (Axon Instruments).
Synchronized bursting was induced by incubating hippocampal slices in ACSF supplemented with potassium chloride to a final concentration of 7.5 mM [K^+]o. Baseline recordings were obtained after exposure to elevated [K^+]o for 1 hour and the burst frequency had stabilized. Bursting was then recorded in ACSF containing 20 mM lactate or 20 mM pyruvate in place of the 10 mM glucose.

Assay [3] in a line: Duration of anticonvulsant effect of 2DG after stopping treatment while continuing twice daily stimulation. The following applies: 250 mg/kg twice daily for 3 months; twice daily stimulation continued. Format: in vivo. Here is the method:
. […]; 5 mM solutions of oxaloacetate glycolic acid, chloroacetate and thioglycolate are equivalent to 660 mg/kg 380 mg/kg, ˜620 mg/kg and 460 mg/kg. respectively. […] A practitioner skilled in the art can adjust dosage in the range up to 500-600 mg/kg 2DG and the timing of administration to produce prolonged anticonvulsant and antiepileptic effects. Efficacious dosage amounts can be adjusted to about 14 mg/kg 2-DG in children and 40 mg/kg 2-DG in adults, using therapeutic efficacy measurements (e.g., reduction in frequency or severity of seizures) as a criterion for establishing effective dosage levels.

Here are results for 10 compounds from patent US20060217303A1, “Compounds and Methods for Treating Seizure Disorders” (Wisconsin Alumni Research Foundation, priority 2005, published 2006).

For the compound `O=CC[C@@H](O)[C@H](O)[C@H](O)CO` [2DG, 2-deoxy-D-glucose], the “epileptic or synchronized bursting in the brains of animals” value in assay [1] was “effective in reducing epileptic or synchronized bursting”. Besides, the synchronized bursting entry in assay [2] (1 mM 2DG in the presence of 20 mM lactate) is recorded as “reduced synchronized bursting”. Moreover, in assay [2], the “epileptic discharges evoked in vitro (relative burst frequency)” value is given as “effective against epileptic discharges” and the “block of the increase in bursting caused by the PEPCK inhibitor 3-MCP” value is “could not be blocked”. For the same compound, the “duration of anticonvulsant effects after stopping 2DG” value in assay [3] is given as “approximately 8 weeks”.
For the compound `O=C(O)c1ncccc1S` [3-MCP, 3-mercaptopicolinic acid, reference compound], the “burst frequency (rate of bursting)” value in assay [2] (3 mM 3-MCP in ACSF with 10 mM glucose) is listed as 208±28 % of baseline. Besides, the rate of bursting entry in assay [2] (3-MCP, FIGS. 5A and 5B) is “induces an increase in the rate of bursting”.
Regarding `O=C(O)[C@@H](O)CO` [L-glycerate], the “epileptic discharges evoked in vitro (relative burst frequency)” value in assay [2] was “effective against epileptic discharges”.
With `C=C(OP(=O)(O)O)C(=O)O` [PEP, phosphoenolpyruvate, reference compound], the “burst frequency (rate of bursting)” value in assay [2] (5 mM PEP in ACSF with 10 mM glucose, reversible) is reported as 215±32 % of baseline.
Take `O=C(O)CO` [glycolic acid]: the “block of the increase in bursting caused by inhibition of PEPCK by 3-MCP” value in assay [2] (PEPCK substrate with 3-MCP, FIGS. 6B, 6C) was “modestly blocks an increase in bursting”. In assay [2], the epileptiform bursting frequency result is on record as “reduce epileptiform bursting frequency” and the “epileptic discharges evoked in vitro (relative burst frequency)” value is given as “effective against epileptic discharges”.
For `O=C(O)CI` [iodoacetate, reference compound], the “epileptic or synchronized bursting in the brains of animals” value in assay [1] is listed as “effective in reducing epileptic or synchronized bursting”. Besides, the synchronized bursting result in assay [2] (200 μM iodoacetate, ACSF with 20 mM lactate) is on record as “reduced synchronized bursting”. In addition, in assay [2], the “epileptic discharges evoked in vitro (relative burst frequency)” value is given as “effective against epileptic discharges” and the “block of the increase in bursting caused by the PEPCK inhibitor 3-MCP” value was “could not be blocked”.
Consider `CC(O)C(=O)O` (stereo not shown) [lactate, reference compound], for which the burst frequency in assay [2] (reversible) is given as 63±8 % of the baseline.
Same read-out and setting: the value for `CC(=O)C(=O)O` [pyruvate, reference compound] was 4±2 % of the baseline.
Take `O=C(O)CCl` [β-chloroacetate]: in assay [2], the epileptiform bursting frequency result is given as “reduce epileptiform bursting frequency” and the “epileptic discharges evoked in vitro (relative burst frequency)” value is given as “effective against epileptic discharges”.
Turning to thioglycolate, in assay [2], the epileptiform bursting frequency result is given as “reduce epileptiform bursting frequency” and the “epileptic discharges evoked in vitro (relative burst frequency)” value was “effective against epileptic discharges”.
